These results are taken from patent US12629387B2, “Composition of antiviral agent for use in prophylactic or post-exposure treatment of infectious or respiratory diseases” (InspirMed Corp., priority 2020, dated 2026).

The nature of data set [1]: Pharmacokinetics and tissue distribution study of HCQ in SD rats after single-dose IV/IT Free HCQ or IT TLC19 (Study No. PK20021). To be noted: for concentration at 24 h / AUC(0-t) / Cmax: Sprague-Dawley, rat, in vivo; for concentration at 24 h: 0.59 mg/animal; for AUC(0-t) / Cmax: 0.59 mg; for Cmax: Cmax of HCQ; for Cmax / Tmax of HCQ / AUC0-72 of HCQ: Free HCQ, 0.590 mg/animal; for Tmax of HCQ: median; for mean HCQ concentration in lung, starting value of decline: start of the first 24 hours post-dose.

The test system of data set [2] is SARS-CoV-infected human airway epithelial (HAE) cells. Conditions: read-out: in vitro antiviral EC50; cited from earlier work.

In the case of `CCN(CCO)CCCC(C)Nc1ccnc2cc(Cl)ccc12` (stereo not drawn) [Free HCQ, hydroxychloroquine], the concentration at 24 h in data set [1] was 2160 ng/g; in data set [1] (iv) it was 3770 ng/g. Also, the area under the curve AUC(0-t) was 2260 ng·h/mL in data set [1] (inhaled or intranasal) and 2330 ng·h/mL in data set [1] (iv). Also, the Cmax in data set [1] (inhaled or intranasal, rat blood, IT administration) was 477 ng/mL; in data set [1] (inhaled or intranasal, rat heart, IT administration), 3800 ng/g; in data set [1] (inhaled or intranasal, rat lung, IT administration), 47800 ng/g; in data set [1] (iv, rat blood, IV injection), 433 ng/mL; in data set [1] (iv, rat heart, IV injection), 4500 ng/g; in data set [1] (iv, rat lung, IV injection), 9400 ng/g. The “overall systemic exposures (Cmax and AUC), IV group compared with IT group” value in data set [1] (rat blood, Free HCQ 0.590 mg/animal) is given as “similar”. Moreover, the “Tmax of HCQ” value in data set [1] (rat blood, IT administration) was found to be 15 min; in data set [1] (rat blood, IV injection), 15 min; in data set [1] (rat heart, IT administration), 15 min; in data set [1] (rat heart, IV injection), 15 min; in data set [1] (rat lung, IT administration) it was 15 min; in data set [1] (rat lung, IV injection), 15 min. Besides, the “AUC0-72 of HCQ” value in data set [1] (rat heart, IT administration) was 64.2 µg·h/g; in data set [1] (rat heart, IV injection), 67.2 µg·h/g; in data set [1] (rat lung, IT administration), 329 µg·h/g; in data set [1] (rat lung, IV injection), 252 µg·h/g. For the same molecule, the “mean HCQ concentration in lung, starting value of decline” value in data set [1] (rat lung, Free HCQ IT group) was 47.8 µg/g; in data set [1] (rat lung, Free HCQ IV group), 9.4 µg/g.

As to `N#C[C@@]1(c2ccc3c(N)ncnn23)O[C@H](CO)[C@@H](O)[C@H]1O` [GS-441524, (2R,3R,4S,5R)-2-(4-aminopyrrolo[2,1-f][1,2,4]triazin-7-yl)-3,4-dihydroxy-5-(hydroxymethyl) oxolane-2-carbonitrile], the half-maximal effective concentration (EC50) in data set [2] is 180 nM.

For orientation: AUC(0-t) means the area under the concentration-time curve up to a stated or last time point. A word on the Cmax: it is the peak of the concentration-time curve. In general, EC50 refers to the concentration needed to bring the measured effect to its halfway point.
